According to PubChem BioAssay (NCI):
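Cultured in 96-well plates, cells were exposed to test compound for 48 hours across five concentrations. GI50 marks 50% less growth. The concentration for full growth arrest is given as TGI.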

How the values were obtained:
Assay in all cases: inhibition of tumour cell growth, NCI panel, 48 h
[1] = tested on: UACC-257 melanoma
[2] = tested on: SF-295 CNS
[3] = tested on: A498 renal
[4] = tested on: COLO 205 colon
[5] = tested on: NCI-H460 lung
[6] = tested on: NCI-H522 lung
[7] = tested on: SF-539 CNS
[8] = tested on: RXF 393 renal
[9] = tested on: HL-60(TB) leukemia
[10] = tested on: MCF7 breast
[11] = tested on: SF-268 CNS
[12] = tested on: OVCAR-3 ovarian
[13] = tested on: HCC-2998 colon
[14] = tested on: UACC-62 melanoma
[15] = tested on: IGROV1 ovarian
[16] = tested on: HT29 colon
[17] = tested on: UO-31 renal
[18] = tested on: DU-145 prostate
[19] = tested on: SK-MEL-28 melanoma
[20] = tested on: SNB-75 CNS
[21] = tested on: MDA-MB-231 breast
[22] = tested on: EKVX NSCLC
[23] = tested on: LOX IMVI melanoma
[24] = tested on: MALME-3M melanoma
[25] = tested on: SK-MEL-2 melanoma
[26] = tested on: SN12C renal
[27] = tested on: SK-MEL-5 melanoma
[28] = tested on: OVCAR-5 ovarian
[29] = tested on: MOLT-4 leukemia

O=c1ccccc(-c2ccc(-c3ccco3)cc2)c1O
GI50 [1]: 1.6 µM
TGI [1]: 18.8 µM
GI50 [2]: 0.555 µM
TGI [2]: 13.6 µM
GI50 [3]: 3.46 µM
TGI [3]: 25.9 µM
GI50 [4]: 3.1 µM
TGI [4]: 49.8 µM
GI50 [5]: 0.408 µM
TGI [5]: 10.8 µM
GI50 [6]: 4.07 µM
TGI [6]: 45.8 µM
GI50 [7]: 0.703 µM
TGI [7]: 6.38 µM
GI50 [8]: 0.951 µM
TGI [8]: 17.2 µM
GI50 [9]: 0.441 µM
TGI [9]: 2.69 µM
GI50 [10]: 0.412 µM
TGI [10]: 29.8 µM
GI50 [11]: 0.761 µM
TGI [11]: > 100 µM
GI50 [12]: 0.415 µM
TGI [12]: 26.3 µM
GI50 [13]: 0.691 µM
TGI [13]: 33.2 µM
GI50 [14]: 0.588 µM
TGI [14]: 4.14 µM
GI50 [15]: 0.633 µM
TGI [15]: 73.8 µM
GI50 [16]: 1.7 µM
TGI [16]: 65.6 µM
GI50 [17]: 0.598 µM
TGI [17]: 8.42 µM
GI50 [18]: 0.967 µM
TGI [18]: > 100 µM
GI50 [19]: 0.79 µM
TGI [19]: 17.8 µM
GI50 [20]: 0.994 µM
TGI [20]: > 100 µM
GI50 [21]: 0.704 µM
TGI [21]: 44.4 µM
GI50 [22]: 0.406 µM
TGI [22]: 7.9 µM
GI50 [23]: 0.472 µM
TGI [23]: 11.2 µM
GI50 [24]: 2.77 µM
TGI [24]: 26.3 µM
GI50 [25]: 10.5 µM
TGI [25]: 44.2 µM
GI50 [26]: 1.24 µM
TGI [26]: 16.6 µM
GI50 [27]: 0.935 µM
TGI [27]: 8.44 µM
GI50 [28]: 2.79 µM
TGI [28]: 42 µM
GI50 [29]: 0.501 µM
